Results from ChEMBL document CHEMBL3525899, “Identification of the cytochrome P450 and other enzymes involved in the in vitro oxidative metabolism of a novel antidepressant, Lu AA21004” (Drug Metab Dispos, 2012).

What was measured:
Liver microsome [1] = assay: Drug metabolism in phenotyped human liver microsomes assessed as formation of 3-methyl-4-(2-(piperazin-1-yl)phenylthio)benzoic acid at 8 to 50 uM after 60 mins by HPLC/MS-MS analysis in presence of NADPH regenerating system with NADP+; assay type: ADME; details: 1 h
Liver microsome [2] = assay: Drug metabolism in pooled human liver microsomes assessed as formation of 4-(2-(2,4-dimethylphenylthio)phenyl)piperazin-1-ol at 100 uM after 30 to 180 mins by HPLC/MS-MS analysis in presence of NADPH regenerating system with NADP+; assay type: ADME
Liver microsome [3] = assay: Intrinsic clearance in pooled human liver microsomes assessed as Vmax(app)/Km(app) for formation of (3-methyl-4-(2-(piperazin-1-yl)phenylthio)phenyl)methanol per mg of protein after 30 mins by Michaelis-Menten plot analysis in presence of NADPH regenerating system with NADP+; assay type: ADME; details: 0.5 h
Liver microsome [4] = assay: Drug metabolism in pooled human liver microsomes assessed as formation of 1-(2-(2,4-dimethylphenylsulfinyl)phenyl)piperazine at 100 uM after 30 to 180 mins by HPLC/MS-MS analysis in presence of NADPH regenerating system with NADP+; assay type: ADME
Cytochrome P450 2B6 = target: T1, Cytochrome P450 2B6 (Homo sapiens, UniProt P20813); assay: Activity of human recombinant CYP2B6 expressed in microsomes isolated from human AHH-1 cells assessed as enzyme-mediated 1-(2-(2,4-dimethylphenylsulfinyl)phenyl)piperazine formation at 8 to 50 uM after 120 mins by HPLC/MS-MS analysis in presence of NADPH regenerating system with NADP+; assay type: ADME, cell-free; details: 2 h
T1 sequence (P20813 whole entry): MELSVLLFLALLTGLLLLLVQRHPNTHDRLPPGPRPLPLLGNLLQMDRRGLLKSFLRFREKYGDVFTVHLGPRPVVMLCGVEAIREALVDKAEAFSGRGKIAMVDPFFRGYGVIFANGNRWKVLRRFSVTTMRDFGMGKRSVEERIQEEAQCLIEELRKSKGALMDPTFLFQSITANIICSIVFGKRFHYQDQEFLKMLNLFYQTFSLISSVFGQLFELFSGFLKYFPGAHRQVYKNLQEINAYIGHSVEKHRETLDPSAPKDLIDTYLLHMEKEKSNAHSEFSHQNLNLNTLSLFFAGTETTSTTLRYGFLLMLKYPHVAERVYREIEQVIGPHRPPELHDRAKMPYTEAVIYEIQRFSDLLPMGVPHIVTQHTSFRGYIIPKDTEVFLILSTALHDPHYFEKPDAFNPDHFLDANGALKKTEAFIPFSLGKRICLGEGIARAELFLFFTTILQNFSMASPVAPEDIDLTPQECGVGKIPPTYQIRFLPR

Cytochrome P450 2C9 = Cytochrome P450 2C9 (Homo sapiens, UniProt P11712); assay: Activity of human recombinant CYP2C9 expressed in microsomes isolated from human AHH-1 cells assessed as enzyme-mediated 3-(2,4-dimethylphenylthio)-4-(piperazin-1-yl)phenol formation at 8 to 50 uM after 120 mins by HPLC/MS-MS analysis in presence of NADPH regenerating system with NADP+; assay type: ADME, cell-free; details: 2 h
Cytochrome P450 2C9, sequence (P11712 whole entry): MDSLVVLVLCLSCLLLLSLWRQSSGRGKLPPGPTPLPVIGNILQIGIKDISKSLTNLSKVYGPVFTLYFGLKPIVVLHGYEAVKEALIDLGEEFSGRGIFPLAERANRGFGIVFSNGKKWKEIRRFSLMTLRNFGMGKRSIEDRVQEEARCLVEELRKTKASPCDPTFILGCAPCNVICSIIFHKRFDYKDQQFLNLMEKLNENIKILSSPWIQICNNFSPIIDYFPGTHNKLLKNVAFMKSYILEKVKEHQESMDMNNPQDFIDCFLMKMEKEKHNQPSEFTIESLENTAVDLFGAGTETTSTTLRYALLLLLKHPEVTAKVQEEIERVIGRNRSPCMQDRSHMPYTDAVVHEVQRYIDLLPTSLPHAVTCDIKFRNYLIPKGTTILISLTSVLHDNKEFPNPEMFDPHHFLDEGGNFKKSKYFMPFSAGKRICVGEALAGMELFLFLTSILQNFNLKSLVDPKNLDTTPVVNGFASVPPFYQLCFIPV

[5] = target: T2, Flavin-containing monooxygenase 3 (Homo sapiens, UniProt P31513); assay: Activity of human recombinant FMO3 expressed in microsomes isolated from baculovirus infected insect BTI-TN-5B1-4 cells assessed as enzyme-mediated 4-(2-(2,4-dimethylphenylthio)phenyl)piperazin-1-ol formation at 8 to 50 uM after 120 mins by HPLC/MS-MS analysis in presence of NADPH regenerating system with NADP+; assay type: ADME; details: 2 h
T2 sequence (P31513 whole entry): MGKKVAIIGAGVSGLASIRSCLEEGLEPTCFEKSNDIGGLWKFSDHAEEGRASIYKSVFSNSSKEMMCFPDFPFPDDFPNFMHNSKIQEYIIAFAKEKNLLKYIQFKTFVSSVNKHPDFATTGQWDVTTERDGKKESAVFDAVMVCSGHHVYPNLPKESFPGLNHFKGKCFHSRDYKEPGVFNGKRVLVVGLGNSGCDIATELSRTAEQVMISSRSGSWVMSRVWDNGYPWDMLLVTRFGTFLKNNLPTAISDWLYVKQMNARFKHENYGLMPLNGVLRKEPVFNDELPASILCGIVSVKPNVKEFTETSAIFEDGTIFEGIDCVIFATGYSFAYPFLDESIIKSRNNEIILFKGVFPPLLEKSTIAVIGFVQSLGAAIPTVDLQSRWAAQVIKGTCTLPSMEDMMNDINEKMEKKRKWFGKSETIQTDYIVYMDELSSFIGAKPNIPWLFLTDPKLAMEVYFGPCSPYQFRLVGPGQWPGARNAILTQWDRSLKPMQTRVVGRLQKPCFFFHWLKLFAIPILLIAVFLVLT

Liver microsome [6] = assay: Drug metabolism in phenotyped human liver microsomes assessed as formation of (3-methyl-4-(2-(piperazin-1-yl)phenylthio)phenyl)methanol at 8 to 50 uM after 60 mins by HPLC/MS-MS analysis in presence of NADPH regenerating system with NADP+; assay type: ADME; details: 1 h
Cytochrome P450 2C19 [7] = target: T3, Cytochrome P450 2C19 (Homo sapiens, UniProt P33261); assay: Activity of human recombinant CYP2C19 expressed in microsomes isolated from human AHH-1 cells assessed as enzyme-mediated 3-(2,4-dimethylphenylthio)-4-(piperazin-1-yl)phenol formation at 8 to 50 uM after 120 mins by HPLC/MS-MS analysis in presence of NADPH regenerating system with NADP+; assay type: ADME, cell-free; details: 2 h
T3 sequence (P33261 whole entry): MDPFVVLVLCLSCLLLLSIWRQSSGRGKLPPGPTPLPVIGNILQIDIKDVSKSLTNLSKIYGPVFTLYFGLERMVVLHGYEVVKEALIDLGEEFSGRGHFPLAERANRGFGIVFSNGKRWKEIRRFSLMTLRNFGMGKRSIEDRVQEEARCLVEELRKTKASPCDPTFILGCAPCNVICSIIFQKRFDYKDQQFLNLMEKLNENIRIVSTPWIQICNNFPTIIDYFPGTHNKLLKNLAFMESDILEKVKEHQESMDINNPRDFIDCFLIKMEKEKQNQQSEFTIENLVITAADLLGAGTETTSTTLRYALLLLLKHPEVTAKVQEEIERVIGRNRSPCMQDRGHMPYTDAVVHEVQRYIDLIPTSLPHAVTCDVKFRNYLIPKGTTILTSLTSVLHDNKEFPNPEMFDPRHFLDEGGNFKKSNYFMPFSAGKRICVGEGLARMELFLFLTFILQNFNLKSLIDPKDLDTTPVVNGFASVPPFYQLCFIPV

Liver microsome [8] = assay: Drug metabolism in pooled human liver microsomes assessed as formation of 3-methyl-4-(2-(piperazin-1-yl)phenylthio)benzoic acid at 100 uM after 30 to 180 mins by HPLC/MS-MS analysis in presence of NADPH regenerating system with NADP+; assay type: ADME
Liver microsome [9] = assay: Drug metabolism in pooled human liver microsomes assessed as formation of (3-methyl-4-(2-(piperazin-1-yl)phenylthio)phenyl)methanol after 30 mins by Michaelis-Menten plot analysis in presence of NADPH regenerating system with NADP+; assay type: ADME; details: 0.5 h, read-out: Km(app)
Cytochrome P450 2D6 = Cytochrome P450 2D6 (Homo sapiens, UniProt P10635); assay: Activity of human recombinant CYP2D6 expressed in microsomes isolated from human AHH-1 cells assessed as enzyme-mediated (3-methyl-4-(2-(piperazin-1-yl)phenylthio)phenyl)methanol formation at 8 to 50 uM after 120 mins by HPLC/MS-MS analysis in presence of NADPH regenerating system with NADP+; assay type: ADME, cell-free; details: 2 h
Cytochrome P450 2D6, sequence (P10635 whole entry): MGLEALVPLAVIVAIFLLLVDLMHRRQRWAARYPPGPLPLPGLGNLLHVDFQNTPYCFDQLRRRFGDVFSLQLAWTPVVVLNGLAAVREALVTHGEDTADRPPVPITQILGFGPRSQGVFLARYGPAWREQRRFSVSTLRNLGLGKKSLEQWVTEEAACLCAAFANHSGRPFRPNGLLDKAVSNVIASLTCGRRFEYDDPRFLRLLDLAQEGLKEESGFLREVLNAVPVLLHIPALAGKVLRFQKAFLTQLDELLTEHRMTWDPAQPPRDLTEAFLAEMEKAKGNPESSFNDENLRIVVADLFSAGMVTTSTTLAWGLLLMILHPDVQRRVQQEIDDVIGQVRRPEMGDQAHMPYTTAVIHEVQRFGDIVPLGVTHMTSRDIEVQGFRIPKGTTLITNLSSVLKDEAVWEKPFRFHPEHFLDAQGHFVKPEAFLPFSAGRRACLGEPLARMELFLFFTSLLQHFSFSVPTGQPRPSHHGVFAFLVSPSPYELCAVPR

Liver microsome [10] = assay: Drug metabolism in phenotyped human liver microsomes assessed as formation of 1-(2-(2,4-dimethylphenylsulfinyl)phenyl)piperazine at 8 to 50 uM after 60 mins by HPLC/MS-MS analysis in presence of NADPH regenerating system with NADP+; assay type: ADME; details: 1 h
Cytochrome P450 2C19 [11] = target: T3, Cytochrome P450 2C19; assay: Activity of human recombinant CYP2C19 expressed in microsomes isolated from human AHH-1 cells assessed as enzyme-mediated 4-(2-(2,4-dimethylphenylthio)phenyl)piperazin-1-ol formation at 8 to 50 uM after 120 mins by HPLC/MS-MS analysis in presence of NADPH regenerating system with NADP+; assay type: ADME, cell-free; details: 2 h
Cytochrome P450 2C19 [12] = target: T3, Cytochrome P450 2C19; assay: Activity of human recombinant CYP2C19 expressed in microsomes isolated from human AHH-1 cells assessed as enzyme-mediated (3-methyl-4-(2-(piperazin-1-yl)phenylthio)phenyl)methanol formation at 8 to 50 uM after 120 mins by HPLC/MS-MS analysis in presence of NADPH regenerating system with NADP+; assay type: ADME, cell-free; details: 2 h

Drug metabolism (Liver microsome [1]): metabolite_detected
Drug metabolism (Liver microsome [2]): metabolite_detected
Vmax/Km (Liver microsome [3]): 1.13 µL/min
Drug metabolism (Liver microsome [4]): metabolite_detected
Drug metabolism (Cytochrome P450 2B6): metabolite_not_detected
Drug metabolism (Cytochrome P450 2C9): metabolite_detected
Drug metabolism [5]: metabolite_not_detected
Drug metabolism (Liver microsome [6]): metabolite_detected
Drug metabolism (Cytochrome P450 2C19 [7]): metabolite_detected
Drug metabolism (Liver microsome [8]): metabolite_detected
Km (Liver microsome [9]): 231 µM
Drug metabolism (Cytochrome P450 2D6): metabolite_detected
Drug metabolism (Liver microsome [10]): metabolite_detected
Drug metabolism (Cytochrome P450 2C19 [11]): metabolite_detected
Drug metabolism (Cytochrome P450 2C19 [12]): metabolite_detected
Structure (SMILES): Br.Cc1ccc(Sc2ccccc2N2CCNCC2)c(C)c1 [VORTIOXETINE HYDROBROMIDE]
